The record followed here is patent EP4810040A2, “INHIBITORS OF APOL1 AND METHODS OF USING SAME” (priority 2020, dated 2022).

Where two headings read alike, the source gives them in different places.

In this assay the target is T1, APOL1 G1 (Homo sapiens, UniProt O14791, I384M/S342G).
T1 sequence (O14791 28-398 S342G/I384M): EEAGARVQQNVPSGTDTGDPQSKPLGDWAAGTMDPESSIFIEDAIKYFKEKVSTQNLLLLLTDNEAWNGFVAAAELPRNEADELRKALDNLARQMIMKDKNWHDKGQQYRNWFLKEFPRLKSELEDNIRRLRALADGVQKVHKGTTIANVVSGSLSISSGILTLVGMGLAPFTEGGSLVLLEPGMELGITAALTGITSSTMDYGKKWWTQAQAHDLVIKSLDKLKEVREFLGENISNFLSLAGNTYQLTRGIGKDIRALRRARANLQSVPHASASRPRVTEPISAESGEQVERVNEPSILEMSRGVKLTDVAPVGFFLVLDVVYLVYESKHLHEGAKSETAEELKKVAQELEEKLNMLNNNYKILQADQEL
As to the kind of experiment: MultiTox-Fluor Multiplex Cytotoxicity Assay, tet-inducible APOL1 G1 T-REx-HEK293 cells. Details: expressed in transfected cells; host or cells: T-REx HEK293, clone G1 DC3.25 (pAAVS1-Puro-APOL1 G1). It counts as cell-based. As to conditions: for IC90: read-out: Multi-Tox Assay IC90; for Emax: read-out: Multi-Tox Assay Max Activity (%). The method, then:
The MultiTox-Fluor Multiplex Cytotoxicity Assay is a single-reagent-addition, homogeneous, fluorescence assay that measures the number of live and dead cells simultaneously in culture wells. The assay measures cell viability and cytotoxicity by detecting two distinct protease activities. The live-cell protease activity is restricted to intact viable cells and is measured using a fluorogenic, cell-permeant peptide glycyl-phenylalanylamino fluorocoumarin (GF-AFC) substrate. The substrate enters intact cells, where it is cleaved to generate a fluorescent signal proportional to the number of living cells. […] A second, cell-impermeant, fluorogenic peptide substrate (bis-AAF-R110 Substrate) is used to measure dead-cell protease that has been released from cells that have lost membrane integrity. A ratio of dead to live cells is used to normalize data.
Briefly, the tet-inducible transgenic APOL1 T-REx-HEK293 cell lines were incubated with 50 ng/mL tet to induce APOL1 in the presence of 3-(2-(4-fluorophenyl)-1H-indol-3-yl)-N-((3S,4R)-4-hydroxy-2-oxopyrrolidin-3-yl)propenamide at […], 0.0045, 0.0015, 0.0005 µM in duplicate for 24 hours in a humidified 37°C incubator. The MultiTox reagent was added to each well and placed back in the incubator for an additional 30 minutes. The plate was read on the EnVision plate reader. A ratio of dead to live cells was used to normalize, and data was imported, analyzed and fit using Genedata Screener (Basel, Switzerland) software. Data was normalized using percent of control, no tet (100% viability), and 50 ng/mL tet treated (0% viability),and fit using Smart Fit. The reagents, methods, and complete protocol for the MultiTox assay are described below. Table 42. Reagents Used in the Multi-Tox Assay
Human embryonic kidney (HEK293) cell lines containing a tet-inducible expression system (T-REx™; Invitrogen, Carlsbad, CA) and Adeno-associated virus site 1 pAA VS1-Puro-APOL1 G0 or pAAVS1-Puro-APOL1 G1 or pAAVS1-Puro-APOL1 G2 Clones G0 DC2.13, G1 DC3.25, and G2 DC4.44 were grown in a T-225 flask at ~90% confluency in cell growth media (DMEM, 10% Tet-free FBS, 2 mM L-glutamine, 100 Units/mL penicillin-streptomycin, 5 µg/mL blasticidin S HCl, 1 µg/mL puromycin dihydrochloride). Cells were washed with DPBS and then trypsinized to dissociate from the flask. Media was used to quench the trypsin, cells were then pelleted at 200g and resuspended in fresh cell assay media (DMEM, 2% Tet-free FBS, 2 mM L-glutamine, 100 Units/mL penicillin-streptomycin). Cells were counted and diluted to 1.17 x 10^6 cells/mL. 20 µL of cells (23,400/well) were dispensed to every well of a 384-well Poly-D-Lysine coated plate using the Multidrop dispenser. The plates were then incubated at room temperature for one hour.
Tetracycline is needed to induce APOL1 expression. 1 mg/mL tet stock in water was diluted to 250 ng/mL (5X) in cell assay media. 60 µL of cell assay media (no tet control) was dispensed in columns 1 and 24, and 60 µL of 5X tet was dispensed in 384-PP-round bottom plate in columns 2 to 23 with the Multidrop dispenser.
Assay ready plates from the Global Compound Archive were ordered using template 384_APOL1Cell_DR10n2_50uM_v3. Compounds were dispensed at 200 nL in DMSO. The final top concentration was 10 µM with a 10 point 3-fold dilution in duplicate in the MultiTox assay.
20 µL were transferred from the 5X tet plate to the ARP and mixed, then 5 µL of 5X tet and the compounds were transferred to the cell plate and mixed using the Bravo. The cell plate was placed in the humidified 37°C 5% CO2 incubator for 24 hours.
The MultiTox-Fluor Multiplex Cytotoxicity Assay was performed in accordance with the manufacturer's protocol. […]

[1] abbreviates: HEK293, Multi-Tox Assay, APOL1 variant (G0/G1/G2) of the HEK293 cells not given.
Where [2] appears, read: Multi-Tox Assay, APOL1 variant not given.
Where [3] appears, read: Multi-Tox Assay, APOL1 variant (G0/G1/G2) not stated in Table 46.
Setting [4] is: Multi-Tox Assay, APOL1 variant not stated in Table 46.

For `CNC(=O)c1ccc(C2CC3(CC(C)N2)OCCc2cc(Cl)sc23)cc1` (stereo not shown) [Compound 41], under setting [1], the IC90 is below 50 nM. In addition, the “Multi-Tox Assay Max Activity (%)” value under setting [2] came to 99.7%. In the case of `C[C@H]1C[C@@]2(C[C@@H](c3ccc[nH]c3=O)N1)OCCc1cc(Cl)sc12` (racemic) [Compound 121], the IC90 under setting [1] fell in the range of 50 to 500 nM. As for `C[C@H]1C[C@@]2(C[C@@H](c3cn(C)nn3)N1)OCCc1cc(C(F)(F)F)sc12` [Compound 2, (2'S,6'S,7S)-2'-methyl-6'-(1-methyltriazol-4-yl)-2-(trifluoromethyl)spiro[4,5-dihydrothieno[2,3-c]pyran-7,4'-piperidine]], the IC90 under setting [1] was below 50 nM. Besides, the Emax under setting [2] turned out to be 100%. For the compound `C[C@H]1C[C@@]2(C[C@@H](c3cnc(N)nc3)N1)OCCc1cc(Cl)sc12` (racemic) [Compound 57], the IC90 under setting [1] is below 50 nM. For the same compound, the “Multi-Tox Assay Max Activity (%)” value under setting [2] stood at 99.7%. For the compound `CNc1ncc([C@@H]2C[C@]3(C[C@H](C)N2)OCCc2cc(Cl)sc23)cn1` (racemic) [Compound 60], the IC90 under setting [1] is below 50 nM. For the same compound, the “Multi-Tox Assay Max Activity (%)” value under setting [2] is reported as 99.7%. In the case of `CC1CC2(CC(c3cnn(CCS(C)(=O)=O)c3)N1)OCCc1cc(Cl)sc12` (stereo not shown) [Compound 46], the IC90 under setting [1] is below 50 nM.

As to `C[C@H]1C[C@@]2(C[C@@H](c3cn(CCO)nn3)N1)OCC(F)(F)c1cc(Cl)sc12` [Compound 361], the IC90 under setting [3] was 50 to 500 nM. The “Multi-Tox Assay Max Activity (%)” value under setting [4] was 98.0%.

For `COCC1CC2(CC(c3cn(C)nn3)N1)OCCc1cc(Cl)sc12` (stereo not shown) [Compound 190], the IC90 under setting [1] was in the range of 50 to 500 nM. For the same compound, the Emax under setting [2] worked out at 99%. Turning to `C[C@H]1C[C@@]2(C[C@@H](c3cn(CC(F)F)nn3)N1)OCC(F)(F)c1cc(Cl)sc12` [Compound 324], the IC90 under setting [1] was above 500 nM. Moreover, the “Multi-Tox Assay Max Activity (%)” value under setting [2] came to 96.0%. Take `CC(=O)NC1([C@@H]2C[C@]3(C[C@H](C)N2)OCCc2cc(Cl)sc23)CC1` [Compound 379, N-[1-[(2'S,6'S,7S)-2-chloro-6'-methyl-spiro[4,5-dihydrothieno[2,3-c]pyran-7,4'-piperidine]-2'-yl]cyclopropyl]acetamide]: the IC90 under setting [3] is above 500 nM. Also, the “Multi-Tox Assay Max Activity (%)” value under setting [4] was found to be 94.0%.

Regarding `Cn1cc(C2CC3(CC(C(F)F)N2)OCCc2cc(Cl)sc23)nn1` (stereo not shown) [Compound 388, 2-chloro-2'-(difluoromethyl)-6'-(1-methyltriazol-4-yl)spiro[4,5-dihydrothieno[2,3-c]pyran-7,4'-piperidine]], the IC90 under setting [3] was above 500 nM. Under setting [4], the Emax was determined as 90%. With `C[C@H]1C[C@@]2(C[C@@H](c3cn(Cc4cocn4)nn3)N1)OCC(F)(F)c1cc(Cl)sc12` [Compound 331], the IC90 under setting [1] is 50 to 500 nM. Further, the “Multi-Tox Assay Max Activity (%)” value under setting [2] came out at 98.0%. In the case of `CC1CC2(CC(C3CCOCC3)N1)OCCc1cc(Cl)sc12` (mixture of isomers) [Compound 216], the IC90 under setting [1] was above 500 nM. The Emax under setting [2] was determined as 97.7%.

In the case of `CC(CO)Cn1cc([C@@H]2C[C@]3(C[C@H](C)N2)OC[C@@H](O)c2cc(Cl)sc23)nn1` (stereo partly shown) [Compound 256], under setting [1], the IC90 lay in the range of 50 to 500 nM. Besides, the “Multi-Tox Assay Max Activity (%)” value under setting [2] is 96.0%. Take `C[C@H]1C[C@@]2(C[C@@H](c3cn(CC4CCS(=O)(=O)C4)nn3)N1)OCC(F)(F)c1cc(Cl)sc12` (stereo partly shown) [Compound 307]: the IC90 under setting [1] was in the range of 50 to 500 nM. As for `CCOc1ccc([C@@H]2C[C@]3(C[C@H](C)N2)OCCc2cc(Cl)sc23)cc1O` (racemic) [Compound 107], the IC90 under setting [1] was below 50 nM. Moreover, the “Multi-Tox Assay Max Activity (%)” value under setting [2] is on record as 99.7%.

In the case of `COC(=O)C1([C@@H]2C[C@]3(C[C@H](C)N2)OCCc2cc(Cl)sc23)CC1` [Compound 372, methyl 1-[(2'S,6'S,7S)-2-chloro-6'-methyl-spiro[4,5-dihydrothieno[2,3-c]pyran-7,4'-piperidine]-2'-yl]cyclopropanecarboxylate], under setting [3], the IC90 was above 500 nM. For the same compound, the “Multi-Tox Assay Max Activity (%)” value under setting [4] is 92.0%. For the compound `Cc1c(Cn2cc([C@@H]3C[C@]4(C[C@H](C)N3)OCC(F)(F)c3cc(Cl)sc34)nn2)cnn1C` [Compound 326], under setting [1], the IC90 was 50 to 500 nM. Further, the “Multi-Tox Assay Max Activity (%)” value under setting [2] was 97.0%. For `COc1ccc([C@@H]2C[C@]3(C[C@H](C)N2)OCCc2cc(Cl)sc23)cc1O` (racemic) [Compound 99], under setting [1], the IC90 was below 50 nM. On to `C[C@H]1C[C@@]2(C[C@@H](c3cn(C)nn3)N1)OC[C@@H](O)c1sc(C(F)(F)F)cc12` [Compound 390, (2'S,4S,6'S,7R)-2'-methyl-6'-(1-methyltriazol-4-yl)-2-(trifluoromethyl)spiro[6,7-dihydrothieno[3,2-c]pyran-4,4'-piperidine]-7-ol], for which, under setting [3], the IC90 is below 50 nM. The Emax under setting [4] stood at 99%.

With `C[C@H]1C[C@@]2(C[C@@H](c3ccc(C(=O)NC4CC4)cc3)N1)OCCc1cc(Cl)sc12` (racemic) [Compound 71], the IC90 under setting [1] is below 50 nM. Besides, the Emax under setting [2] came to 100%. Consider `C[C@H]1C[C@@]2(C[C@@H](c3ccnc(O)c3)N1)OCCc1cc(Cl)sc12` (racemic) [Compound 112], for which, under setting [1], the IC90 is below 50 nM. Besides, the “Multi-Tox Assay Max Activity (%)” value under setting [2] was found to be 100.0%. As to `C[C@H]1C[C@@]2(C[C@@H](c3cn(CCC(C)(C)O)nn3)N1)OCC(F)(F)c1cc(Cl)sc12` [Compound 367], under setting [3], the IC90 was below 50 nM. With `C[C@H]1C[C@@]2(C[C@@H](c3cn(C)nn3)N1)OC[C@H](O)c1cc(C(F)(F)F)sc12` [Compound 180], the IC90 under setting [1] was below 50 nM. Moreover, the Emax under setting [2] came out at 99.8%. As for `CCC(O)Cn1cc([C@@H]2C[C@]3(C[C@H](C)N2)OCCc2cc(Cl)sc23)nn1` (mixture of isomers) [Compound 111], the IC90 under setting [1] was 50 to 500 nM. Besides, under setting [2], the “Multi-Tox Assay Max Activity (%)” value worked out at 99.3%. Turning to `CCc1cc([C@@H]2C[C@]3(C[C@H](C)N2)OCCc2cc(Cl)sc23)on1` [Compound 91], under setting [1], the IC90 was below 50 nM. Besides, the Emax under setting [2] was found to be 100%. On to `C[C@H]1C[C@@]2(C[C@@H](c3cn(C)nn3)N1)OC[C@@H](O)c1sc(Cl)cc12` [Compound 182], for which, under setting [1], the IC90 is below 50 nM. For the same compound, under setting [2], the Emax was 100%. In the case of `CC(=O)Nc1cccc([C@@H]2C[C@]3(C[C@H](C)N2)OCCc2cc(Cl)sc23)c1` (racemic) [Compound 113], under setting [1], the IC90 was in the range of 50 to 500 nM. For the same compound, the “Multi-Tox Assay Max Activity (%)” value under setting [2] came to 100.0%. Turning to `C[C@H]1C[C@@]2(C[C@@H](c3cn(Cc4cncs4)nn3)N1)OCC(F)(F)c1cc(Cl)sc12` [Compound 365], the IC90 under setting [3] is 50 to 500 nM.
